This is an account of results in ChEMBL document CHEMBL4138148, “Discovery of novel pyrrolo-pyridine/pyrimidine derivatives bearing pyridazinone moiety as c-Met kinase inhibitors” (Eur J Med Chem, 2017).

SMILES strings stand for the structures. pIC50: −log10 of the molar value. Activity calls are given as the source filed them. The rule behind the calls is not given here.

Experiment [1] concerns HepG2. Nature of the experiment: Induction of apoptosis in human HepG2 cells assessed as early apoptotic cells at 2.8 uM by Annexin V-FITC/propidium iodide staining based flow cytometry (reference value: 6.11%). The format is functional.
Experiment [2] deals with HepG2. Nature of the experiment: Induction of apoptosis in human HepG2 cells assessed as viable cells at 2.8 uM by Annexin V-FITC/propidium iodide staining based flow cytometry (reference value: 87.54%). The format is functional. As to conditions: read-out: Activity.
Experiment [3] deals with HepG2. As to the kind of experiment: Induction of apoptosis in human HepG2 cells assessed as necrotic cells at 2.8 uM by Annexin V-FITC/propidium iodide staining based flow cytometry (reference value: 0.28%). The experiment is classed as functional. For orientation: Flow cytometry measures light scatter and fluorescence of single cells or particles in a stream.
In experiment [4] the test system is HepG2. As to the kind of experiment: Induction of apoptosis in human HepG2 cells assessed as late apoptotic cells at 2.8 uM by Annexin V-FITC/propidium iodide staining based flow cytometry (reference value: 6.07%). The experiment is classed as functional.
Experiment [5] concerns HepG2. Nature of the experiment: Induction of apoptosis in human HepG2 cells assessed as viable cells at 1.3 uM by Annexin V-FITC/propidium iodide staining based flow cytometry (reference value: 87.54%). The experiment is classed as functional. Particulars: read-out: Activity.
In experiment [6] the target is Mast/stem cell growth factor receptor Kit (Homo sapiens, UniProt P10721). Nature of the experiment: Inhibition of cKIT (unknown origin) using FAM-labeled peptide as substrate preincubated for 10 mins followed by substrate addition by mobility shift assay.
Sequence of Mast/stem cell growth factor receptor Kit (P10721 whole entry): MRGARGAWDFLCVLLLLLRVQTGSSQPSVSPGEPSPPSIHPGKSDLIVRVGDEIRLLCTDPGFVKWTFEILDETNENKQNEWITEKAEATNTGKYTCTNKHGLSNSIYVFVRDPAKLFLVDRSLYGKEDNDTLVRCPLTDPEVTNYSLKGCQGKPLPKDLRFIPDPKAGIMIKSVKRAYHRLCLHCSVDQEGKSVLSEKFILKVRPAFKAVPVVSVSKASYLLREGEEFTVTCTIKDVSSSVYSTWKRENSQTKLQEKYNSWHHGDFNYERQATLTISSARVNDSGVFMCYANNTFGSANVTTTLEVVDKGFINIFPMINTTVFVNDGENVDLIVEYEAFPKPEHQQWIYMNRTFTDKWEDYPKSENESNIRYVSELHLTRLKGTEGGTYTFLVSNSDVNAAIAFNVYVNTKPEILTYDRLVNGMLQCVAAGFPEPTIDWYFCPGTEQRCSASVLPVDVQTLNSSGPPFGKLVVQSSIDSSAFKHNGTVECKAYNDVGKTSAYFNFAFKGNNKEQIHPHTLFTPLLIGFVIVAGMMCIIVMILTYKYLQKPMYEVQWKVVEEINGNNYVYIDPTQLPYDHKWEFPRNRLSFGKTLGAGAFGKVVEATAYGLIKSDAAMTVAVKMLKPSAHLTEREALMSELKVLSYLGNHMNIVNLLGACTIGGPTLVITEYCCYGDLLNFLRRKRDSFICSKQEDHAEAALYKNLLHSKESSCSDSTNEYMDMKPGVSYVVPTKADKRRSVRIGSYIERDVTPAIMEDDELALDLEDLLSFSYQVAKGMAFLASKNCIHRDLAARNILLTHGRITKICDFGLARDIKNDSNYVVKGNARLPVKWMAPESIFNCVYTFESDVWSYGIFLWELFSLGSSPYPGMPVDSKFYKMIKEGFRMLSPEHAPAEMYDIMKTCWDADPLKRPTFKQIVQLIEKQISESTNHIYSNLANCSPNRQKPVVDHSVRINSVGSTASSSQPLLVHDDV
For experiment [7], the system named is PC-3. As to the kind of experiment: cells. As to conditions: Homo sapiens, PC-3, 72 h.
Description: (§1) Cytotoxicity against human PC3 cells assessed as reduction in cell viability after 72 hrs by MTT assay
Experiment [8] relates to MCF7. As to the kind of experiment: cells. Particulars: Homo sapiens, MCF7, 72 h.
Description: (§2) Cytotoxicity against human MCF7 cells assessed as reduction in cell viability after 72 hrs by MTT assay
Experiment [9] relates to HepG2. As to the kind of experiment: Induction of apoptosis in human HepG2 cells assessed as necrotic cells at 1.3 uM by Annexin V-FITC/propidium iodide staining based flow cytometry (reference value: 0.28%). The format is functional.
In experiment [10] the test system is MCF7. Particulars: Homo sapiens.
Description: as §2
The subject of experiment [11] is PC-3. Particulars: Homo sapiens.
Description: as §1
Experiment [12] has as its target Epidermal growth factor receptor (Homo sapiens, UniProt P00533). Nature of the experiment: Inhibition of EGFR (unknown origin) using FAM-labeled peptide as substrate preincubated for 10 mins followed by substrate addition by mobility shift assay.
The subject of experiment [13] is A549. Particulars: Homo sapiens.
Description: (§3) Cytotoxicity against human A549 cells assessed as reduction in cell viability after 72 hrs by MTT assay
In experiment [14] the test system is HepG2. Particulars: Homo sapiens.
Description: (§4) Cytotoxicity against human HepG2 cells assessed as reduction in cell viability after 72 hrs by MTT assay
Experiment [15] addresses T1, Receptor-type tyrosine-protein kinase FLT3 (Homo sapiens, UniProt P36888).
T1 sequence (P36888 whole entry): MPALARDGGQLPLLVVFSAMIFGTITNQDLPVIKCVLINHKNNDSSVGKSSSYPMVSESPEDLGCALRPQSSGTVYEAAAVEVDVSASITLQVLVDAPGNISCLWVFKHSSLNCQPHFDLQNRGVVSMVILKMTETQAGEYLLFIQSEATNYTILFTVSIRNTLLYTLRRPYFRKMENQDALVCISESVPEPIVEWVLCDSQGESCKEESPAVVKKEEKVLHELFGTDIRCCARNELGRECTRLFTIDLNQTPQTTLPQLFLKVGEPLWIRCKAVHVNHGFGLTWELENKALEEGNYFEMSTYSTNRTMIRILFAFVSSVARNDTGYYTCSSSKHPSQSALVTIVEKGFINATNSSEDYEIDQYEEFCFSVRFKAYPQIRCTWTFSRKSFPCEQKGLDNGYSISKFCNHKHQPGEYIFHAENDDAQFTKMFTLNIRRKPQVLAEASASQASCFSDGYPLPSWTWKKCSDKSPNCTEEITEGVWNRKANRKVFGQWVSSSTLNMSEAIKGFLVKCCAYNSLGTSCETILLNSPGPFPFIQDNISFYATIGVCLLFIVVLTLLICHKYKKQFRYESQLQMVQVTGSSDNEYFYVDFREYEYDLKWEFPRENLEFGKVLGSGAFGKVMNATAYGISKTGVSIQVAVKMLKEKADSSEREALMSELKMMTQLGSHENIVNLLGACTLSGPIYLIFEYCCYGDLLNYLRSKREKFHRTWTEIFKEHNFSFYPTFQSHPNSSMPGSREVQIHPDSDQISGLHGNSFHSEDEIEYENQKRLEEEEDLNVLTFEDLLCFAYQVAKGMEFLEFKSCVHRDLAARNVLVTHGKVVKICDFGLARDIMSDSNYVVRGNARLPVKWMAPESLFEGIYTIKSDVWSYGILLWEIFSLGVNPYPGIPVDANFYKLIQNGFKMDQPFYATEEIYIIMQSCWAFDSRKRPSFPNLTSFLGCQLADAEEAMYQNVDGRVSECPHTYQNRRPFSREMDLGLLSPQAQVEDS
As to the kind of experiment: Inhibition of FLT3 (unknown origin) using FAM-labeled peptide as substrate preincubated for 10 mins followed by substrate addition by mobility shift assay.

The subject of experiment [16] is HepG2. Nature of the experiment: cells. As to conditions: Homo sapiens, HepG2, 72 h.
Description: as §4
The subject of experiment [17] is HepG2. Nature of the experiment: Induction of apoptosis in human HepG2 cells assessed as early apoptotic cells at 1.3 uM by Annexin V-FITC/propidium iodide staining based flow cytometry (reference value: 6.11%). The format is functional.
Experiment [18] has as its system HepG2. Nature of the experiment: Induction of apoptosis in human HepG2 cells assessed as formation of chromatin condensation at 1.3 uM by acridine orange dye based inverted fluorescence microscopy. The format is functional, cell-based.
In experiment [19] the test system is HepG2. Nature of the experiment: Induction of apoptosis in human HepG2 cells assessed as late apoptotic cells at 1.3 uM by Annexin V-FITC/propidium iodide staining based flow cytometry (reference value: 6.07%). The format is functional.
In experiment [20] the target is Vascular endothelial growth factor receptor 2 (Homo sapiens, UniProt P35968). As to the kind of experiment: Inhibition of VEGFR2 (unknown origin) using FAM-labeled peptide as substrate preincubated for 10 mins followed by substrate addition by mobility shift assay.
Sequence of Vascular endothelial growth factor receptor 2 (P35968 whole entry): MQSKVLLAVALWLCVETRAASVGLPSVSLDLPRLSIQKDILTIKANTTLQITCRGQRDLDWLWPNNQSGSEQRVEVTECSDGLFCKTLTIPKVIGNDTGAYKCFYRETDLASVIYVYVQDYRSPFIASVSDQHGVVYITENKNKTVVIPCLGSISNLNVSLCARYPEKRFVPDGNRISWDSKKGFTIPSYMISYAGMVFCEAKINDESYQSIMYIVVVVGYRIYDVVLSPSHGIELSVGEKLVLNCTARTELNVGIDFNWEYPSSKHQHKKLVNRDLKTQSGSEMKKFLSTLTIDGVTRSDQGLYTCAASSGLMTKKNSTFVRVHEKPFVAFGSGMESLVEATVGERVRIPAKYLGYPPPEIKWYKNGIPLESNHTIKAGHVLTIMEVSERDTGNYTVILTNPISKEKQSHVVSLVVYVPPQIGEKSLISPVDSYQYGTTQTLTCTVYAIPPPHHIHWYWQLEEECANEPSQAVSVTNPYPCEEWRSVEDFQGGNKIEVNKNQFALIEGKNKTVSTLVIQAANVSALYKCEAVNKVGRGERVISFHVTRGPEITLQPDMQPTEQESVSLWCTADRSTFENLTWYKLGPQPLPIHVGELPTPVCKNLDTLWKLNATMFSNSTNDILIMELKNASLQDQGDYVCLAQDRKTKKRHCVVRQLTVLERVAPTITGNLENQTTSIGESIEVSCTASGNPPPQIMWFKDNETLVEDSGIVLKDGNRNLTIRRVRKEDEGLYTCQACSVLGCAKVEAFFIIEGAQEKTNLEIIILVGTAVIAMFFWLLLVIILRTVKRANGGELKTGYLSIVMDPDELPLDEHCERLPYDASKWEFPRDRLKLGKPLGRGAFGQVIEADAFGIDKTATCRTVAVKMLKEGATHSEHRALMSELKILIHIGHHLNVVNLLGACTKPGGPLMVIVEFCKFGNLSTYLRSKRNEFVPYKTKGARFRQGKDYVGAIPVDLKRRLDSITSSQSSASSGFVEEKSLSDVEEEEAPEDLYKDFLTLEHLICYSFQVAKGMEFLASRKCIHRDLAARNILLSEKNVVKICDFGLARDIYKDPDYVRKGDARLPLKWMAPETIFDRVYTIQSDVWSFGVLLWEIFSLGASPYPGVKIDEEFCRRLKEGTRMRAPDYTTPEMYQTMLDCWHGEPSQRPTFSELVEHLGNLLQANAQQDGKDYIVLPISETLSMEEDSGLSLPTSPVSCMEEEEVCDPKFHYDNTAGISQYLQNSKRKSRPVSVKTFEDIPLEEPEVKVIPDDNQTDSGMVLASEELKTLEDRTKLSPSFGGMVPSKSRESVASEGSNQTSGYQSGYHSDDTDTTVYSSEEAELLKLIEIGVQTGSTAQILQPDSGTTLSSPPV
In experiment [21] the test system is HepG2. Nature of the experiment: Induction of apoptosis in human HepG2 cells assessed as formation of cell shrinkage at 1.3 uM by acridine orange dye based inverted fluorescence microscopy. The experiment is classed as functional.
Experiment [22] concerns HepG2. Nature of the experiment: Induction of apoptosis in human HepG2 cells assessed as formation of DNA fragments at 1.3 uM by acridine orange dye based inverted fluorescence microscopy. The experiment is classed as functional, cell-based.
Experiment [23] has as its target Hepatocyte growth factor receptor (Homo sapiens, UniProt P08581). As to the kind of experiment: Inhibition of c-MET (unknown origin) using FAM-labeled peptide as substrate preincubated for 10 mins followed by substrate addition by mobility shift assay.
Experiment [24] relates to A549. As to the kind of experiment: cells. Particulars: Homo sapiens, A549, 72 h.
Description: as §3

Sequence of Hepatocyte growth factor receptor (P08581 whole entry): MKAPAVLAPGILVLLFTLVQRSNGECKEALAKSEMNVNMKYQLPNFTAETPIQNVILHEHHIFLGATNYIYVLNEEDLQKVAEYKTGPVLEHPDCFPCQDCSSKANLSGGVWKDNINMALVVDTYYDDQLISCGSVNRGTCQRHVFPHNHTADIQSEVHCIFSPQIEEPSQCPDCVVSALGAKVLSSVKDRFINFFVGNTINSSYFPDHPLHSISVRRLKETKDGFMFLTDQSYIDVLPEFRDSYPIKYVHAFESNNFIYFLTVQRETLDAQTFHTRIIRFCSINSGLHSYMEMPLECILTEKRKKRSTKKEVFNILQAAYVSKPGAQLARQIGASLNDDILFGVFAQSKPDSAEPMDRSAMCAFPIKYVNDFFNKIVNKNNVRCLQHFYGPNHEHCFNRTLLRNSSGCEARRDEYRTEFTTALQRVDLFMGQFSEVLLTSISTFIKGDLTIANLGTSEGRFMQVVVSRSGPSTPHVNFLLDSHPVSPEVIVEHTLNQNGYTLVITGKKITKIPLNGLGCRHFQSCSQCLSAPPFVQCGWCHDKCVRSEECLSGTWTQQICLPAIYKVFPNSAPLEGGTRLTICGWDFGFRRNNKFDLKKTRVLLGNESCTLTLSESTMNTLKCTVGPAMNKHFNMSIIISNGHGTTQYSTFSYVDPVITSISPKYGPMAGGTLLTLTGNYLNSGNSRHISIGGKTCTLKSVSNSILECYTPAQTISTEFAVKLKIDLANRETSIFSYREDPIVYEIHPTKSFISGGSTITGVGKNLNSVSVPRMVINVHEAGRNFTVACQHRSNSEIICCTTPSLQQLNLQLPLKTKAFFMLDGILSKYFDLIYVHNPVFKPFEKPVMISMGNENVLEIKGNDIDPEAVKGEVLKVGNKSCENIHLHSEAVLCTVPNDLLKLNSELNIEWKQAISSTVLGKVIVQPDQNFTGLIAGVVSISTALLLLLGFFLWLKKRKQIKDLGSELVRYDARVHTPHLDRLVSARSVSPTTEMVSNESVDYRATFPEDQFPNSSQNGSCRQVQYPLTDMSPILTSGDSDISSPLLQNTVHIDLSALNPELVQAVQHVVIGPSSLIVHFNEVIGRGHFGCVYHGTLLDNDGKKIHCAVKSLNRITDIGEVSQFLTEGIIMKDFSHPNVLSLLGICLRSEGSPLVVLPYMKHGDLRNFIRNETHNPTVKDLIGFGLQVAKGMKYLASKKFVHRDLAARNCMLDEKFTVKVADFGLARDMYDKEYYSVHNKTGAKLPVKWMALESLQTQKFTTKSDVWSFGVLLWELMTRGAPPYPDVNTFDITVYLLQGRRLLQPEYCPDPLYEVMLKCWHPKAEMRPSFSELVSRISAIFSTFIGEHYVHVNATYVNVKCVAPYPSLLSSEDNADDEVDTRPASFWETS
Sequence of Epidermal growth factor receptor (P00533 whole entry): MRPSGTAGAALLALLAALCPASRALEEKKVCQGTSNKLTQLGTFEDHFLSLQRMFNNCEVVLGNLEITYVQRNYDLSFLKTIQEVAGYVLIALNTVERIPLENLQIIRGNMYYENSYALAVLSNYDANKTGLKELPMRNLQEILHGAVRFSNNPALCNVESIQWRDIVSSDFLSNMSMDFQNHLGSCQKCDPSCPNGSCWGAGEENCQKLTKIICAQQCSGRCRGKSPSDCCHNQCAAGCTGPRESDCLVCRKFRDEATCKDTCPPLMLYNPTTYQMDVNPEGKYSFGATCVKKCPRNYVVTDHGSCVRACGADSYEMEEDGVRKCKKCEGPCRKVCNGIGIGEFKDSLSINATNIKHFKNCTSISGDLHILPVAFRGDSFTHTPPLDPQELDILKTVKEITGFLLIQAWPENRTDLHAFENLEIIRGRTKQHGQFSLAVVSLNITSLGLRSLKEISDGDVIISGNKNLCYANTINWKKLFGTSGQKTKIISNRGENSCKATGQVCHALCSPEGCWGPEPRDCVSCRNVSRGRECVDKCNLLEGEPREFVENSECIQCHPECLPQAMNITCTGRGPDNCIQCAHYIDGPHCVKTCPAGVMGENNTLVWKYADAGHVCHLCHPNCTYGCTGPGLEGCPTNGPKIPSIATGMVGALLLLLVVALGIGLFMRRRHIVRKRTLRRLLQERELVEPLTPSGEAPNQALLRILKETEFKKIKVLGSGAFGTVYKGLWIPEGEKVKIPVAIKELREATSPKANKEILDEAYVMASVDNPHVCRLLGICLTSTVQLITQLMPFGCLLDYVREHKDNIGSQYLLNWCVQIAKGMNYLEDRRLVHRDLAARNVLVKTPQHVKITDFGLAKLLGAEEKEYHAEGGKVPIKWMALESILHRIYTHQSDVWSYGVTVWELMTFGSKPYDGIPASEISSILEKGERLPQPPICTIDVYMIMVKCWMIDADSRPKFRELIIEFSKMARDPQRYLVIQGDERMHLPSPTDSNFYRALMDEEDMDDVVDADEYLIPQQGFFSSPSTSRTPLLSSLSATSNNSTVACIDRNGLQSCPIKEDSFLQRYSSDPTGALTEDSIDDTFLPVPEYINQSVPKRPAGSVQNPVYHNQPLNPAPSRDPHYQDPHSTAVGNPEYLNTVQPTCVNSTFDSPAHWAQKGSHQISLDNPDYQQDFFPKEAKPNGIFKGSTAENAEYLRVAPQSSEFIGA

As for `COc1cc2c(Oc3ccc(NC(=O)C4(C(=O)Nc5ccc(F)cc5)CC4)cc3F)ccnc2cc1OCCCN1CCOCC1` [FORETINIB], the Activity in the experiment on HepG2 [1] came to 16.09%; with HepG2 [3] it was 1.25%; with HepG2 [4], 10.3%. The viability at 2.8 µM in the experiment with HepG2 [2] came to 72.4%.

Broadly, the pIC50 is the IC50 on a negative log10 scale, so that one unit is a factor of ten. As to `O=C(Nc1ccc(Oc2ccnc3[nH]ccc23)cc1)c1nn(-c2ccc(Cl)c(C(F)(F)F)c2)ccc1=O`, in the experiment on HepG2 [5], the viability at 1.3 µM stood at 62.8%. Moreover, the pIC50 in experiment [6] was 5.66; in the experiment on PC-3 [7], 5.33; in the experiment with MCF7 [8] it was 5.20; in experiment [12] it was under 5.00; in experiment [15], 6.11; in the experiment on HepG2 [16], 5.88. The values for the pIC50 (in [20]; in [23]; in the experiment on A549 [24]) were 5.62, 7.14 and 5.66, respectively. Further, the Activity is 2.31% in the experiment with HepG2 [9]; “Dose-dependent effect” with MCF7 [10]; “Dose-dependent effect” in the experiment on PC-3 [11]; “Dose-dependent effect” with A549 [13]; “Dose-dependent effect” with HepG2 [14]; 23.01% with HepG2 [17]. Moreover, the Activity in the experiment with HepG2 [19] was found to be 11.89%. Further, the result with HepG2 [18], in the experiment on HepG2 [21] and with HepG2 [22] was Active.
